Assay results published in patent US7122518B2, “Method for preventing or reducing collateral phototoxic damage to neighboring tissues during photodynamic therapy of a target tissue” (New York University, priority 2002, dated 2006).
Entries after “also recorded” stand apart in the source; their conditions may differ. Read-outs that look alike come from different tables or passages of the source.

Assays:
[1] = Biodistribution of hypericin in tissues of tumor-bearing mice (fluorescence); type: in vivo; details: BALB/c mice bearing breast adenocarcinoma tumors, preliminary (FIG. 5)
Method: The present inventor aimed to overcome this obstacle by using pharmacokinetic considerations. Hypericin is a lipophilic agent with an alpha half life of approximately 1–2 hours in the circulation. […] It is therefore possible to generate conditions in which hypericin has cleared from the circulation and concentrated in the tissues where it can be useful in protecting from collateral photodynamic damage.

ARPE cells = experiment: Competitive quenching by hypericin versus DTHe in ARPE cells (Hemacolor viability); details: for cell viability: 1.73 J/cm^2, Hemacolor after 24 hrs (FIG. 7A)
Method: The cells were treated with the added dianthraquinone compounds for 3 hrs. and with added verteporfin for the last two hrs. The cells were then exposed to 1.73 J/cm^2 of light irradiation at >650 nm and cell viability monitored after 24 hrs. in culture.
(§1) For the Hemacolor assay the cells were fixed with methanol, stained with Hemacolor reagents (Merck, Darmstadt, Germany), the dye eluted and quantified in an ELISA reader at 650 nm. PDT efficacy was expressed as percentage of viable cells in treated wells relative to untreated controls, calculated as (OD650, treated/OD650, untreated)×100.
ARPE or EH endothelial hybridoma cells were seeded at 5×10^4 cells/well in 96 well flat bottom microplates. The cells were allowed to adhere overnight, after which time DTHe or hypericin were added to ARPE cells (FIG. 7A) or to endothelial hybridoma cells (FIG. 7B) at concentrations of 10 or 20 μg/ml and the cells incubated at 37° C. in complete darkness. After one hour incubation with hypericin, verteporfin at concentrations of 0.1, 0.25 and 0.5 μg/ml was added to the cultures, which were then incubated at 37° C. for two additional hours. The supernatants were removed, the cells washed with PBS and the cultures exposed to light irradiation at a dose of 1.73 J/cm^2 at 689 nm. The cultures were then incubated at 37° C. for an additional 24 hrs and cell viability was then determined via the hemacolor assay.

[2] = cited from earlier work
ARPE-19 cells = experiment: Protection of ARPE cells from verteporfin-induced phototoxicity (MTT viability); details: for viability at 20 µM: Homo sapiens, ARPE-19, light or radiation study
Method: ARPE or EH cells were plated in 96 well flat bottom microplates 2×10^4 cells/well. The cells were allowed to attach to the plate surface and hypericin was added to the cultures in complete darkness (ambient light kept below <0.03 mW/cm^2 to prevent hypericin-mediated phototoxicity) for time intervals ranging from 3–6 hrs. Verteporfin was then added and was present for the last two hours of the incubation period. At the end of incubation period, the growth medium containing hypericin and verteporfin was removed and replaced with phosphate buffered saline (PBS) and then photosensitized with red light using a fiber-optic non-coherent light delivery system (SeNet Ltd, Israel) in combination with K700 broadband interference filter with central wavelengths at 700 nm and half-height bandwidth of ±40 nm (Rolyn Optics, Covina, Calif.) to selectively excite verteporfin but not hypericin (excitable at 546 and 590 nm). […] The fluence rate (mW/cm^2) was measured with a Model IL 1400A radiometer/photometer (International Light Inc., Newburyport, Mass.).
Two methods have been used to monitor cell viability: the MTT assay which measures reduction of MTT to formasan by mitochondria of viable cells and by the Hemacolor assay, a calorimetric microtiter assay that quantifies the amount of dye that binds to viable adherent cells (Keisari, 1992). […] MTT was added to the cells following light irradiation and the plates were incubated for three hours and then analyzed in an ELISA reader at 560 nm. […]
In order to examine whether the red/ox properties of hypericin in the dark can impact on the phototoxic properties of verteporfin (VP), retinal pigmented epithelial cells (ARPE-19) in monolayer cultures were loaded with hypericin by exposure to 5, 10 and 20 μM of this compound for three and six hrs. […] Following irradiation, drug-free fresh medium was introduced, the cells incubated at 37° C. in a 5% CO2 incubator for additional 24 hrs and cell viability then monitored using the MTT assay.

EH endothelial cells = experiment: Protection of EH endothelial cells from verteporfin-induced phototoxicity (viability); details: for viability at 20 µM: Homo sapiens, Endothelial cell, light or radiation study
Method: ARPE or EH cells were plated in 96 well flat bottom microplates 2×10^4 cells/well. The cells were allowed to attach to the plate surface and hypericin was added to the cultures in complete darkness (ambient light kept below <0.03 mW/cm^2 to prevent hypericin-mediated phototoxicity) for time intervals ranging from 3–6 hrs. Verteporfin was then added and was present for the last two hours of the incubation period. At the end of incubation period, the growth medium containing hypericin and verteporfin was removed and replaced with phosphate buffered saline (PBS) and then photosensitized with red light using a fiber-optic non-coherent light delivery system (SeNet Ltd, Israel) in combination with K700 broadband interference filter with central wavelengths at 700 nm and half-height bandwidth of ±40 nm (Rolyn Optics, Covina, Calif.) to selectively excite verteporfin but not hypericin (excitable at 546 and 590 nm). The cultures were then returned to standard growth medium, cultured for 24 hrs in a 37° C., 5% CO2 and cell viability then assayed by the MTT or Hemacolor assays. The fluence rate (mW/cm^2) was measured with a Model IL 1400A radiometer/photometer (International Light Inc., Newburyport, Mass.).
Two methods have been used to monitor cell viability: the MTT assay which measures reduction of MTT to formasan by mitochondria of viable cells and by the Hemacolor assay, a calorimetric microtiter assay that quantifies the amount of dye that binds to viable adherent cells (Keisari, 1992). The cells were plated in flat-bottomed 96 well plates in 200 μl medium containing the photosensitizer. MTT was added to the cells following light irradiation and the plates were incubated for three hours and then analyzed in an ELISA reader at 560 nm. Corrections were made for non-specific absorption of MTT subtracting background values generated in cell free blank wells containing medium and HY at each dose level and MTT.
as §1
EH cells were used for this purpose.

[3] = Hypericin distribution among the layers of the retina after i.v. administration
Method: Rats were sacrificed at 15 min, 2 hrs, 6 hrs and 8 hrs after i.v. administration of hypericin, 2 mg/kg. The eyes were enucleated and frozen initially at −80° C. and subsequently in liquid nitrogen and several cryostat sections (5-μm width) sliced from each sample. To prevent hypericin extraction from the retinal tissues during staining the histological tissue distribution of hypericin among the different layers of the retina was initially examined under an Olympus phase contrast and fluorescence microscope, and the data photographed with a computer-linked digital camera (Multipixel Spectral Imaging System, Applied Spectral Imaging Inc., Israel. Hypericin was excited at 477 nm and its fluorescence recorded by documenting emission intensity at 602 nm. The photographed locations were marked and the sections then stained with Hematoxylin-eosin (H&E) for confirmation of retinal layer identity and compared to the corresponding fluorescence and light microscopy images.
Hypericin at a dose of 2 mg/kg was administered to the tail vein. At 15 minutes, 2, 4, 6 and 8 hrs the rats were anesthesized, the eyes enucleated and frozen sections prepared. The sections were then analyzed by Multipixel Spectral Imaging.

[4] = in vivo, iv; cited from earlier work
[5] = verteporfin 0.25 μg/ml plus quencher 10 μg/ml
[6] = verteporfin 0.25 μg/ml plus quencher 20 μg/ml

Cc1cc(O)c2c(=O)c3c(O)cc(O)c4c5c(O)cc(O)c6c(=O)c7c(O)cc(C)c8c1c2c(c34)c(c78)c65 [hypericin]
tissue biodistribution [1]: sequester in various tissues for many hours
cell viability (ARPE cells; [5]): 35%
cell viability (ARPE cells; [6]): 32%
alpha half-life in the circulation ([2]; circulation): 1 to 2 h
elimination half-life ([2]; human, in vivo): ~48 h
gamma elimination half life from tissues ([2]; in vivo): approximately 48 hrs
viability at 20 µM (ARPE-19 cells; read-out: percent cell viability, verteporfin 0.25 μg/ml plus hypericin 20 μM, 0.75 J/cm^2 >650 nm (FIG. 2A)): 60%
viability at 20 µM (ARPE-19 cells; read-out: percent cell viability, verteporfin 0.5 μg/ml plus hypericin 20 μM, 0.75 J/cm^2 >650 nm (FIG. 2A)): 25%
cell viability preserved (ARPE-19 cells; verteporfin 2 μg/ml, hypericin loaded before photosensitization, RPE or endothelial cells, cell line not specified): up to 46.8%
viability at 20 µM (EH endothelial cells; read-out: EH cell viability, verteporfin 0.1 μg/ml plus hypericin 20 μM, 0.96 J/cm^2 (FIG. 3A)): 73%
viability at 20 µM (EH endothelial cells; read-out: EH cell viability, verteporfin 0.25 μg/ml plus hypericin 20 μM, 0.96 J/cm^2 (FIG. 3A)): 81%
viability at 20 µM (EH endothelial cells; read-out: EH cell viability, verteporfin 0.5 μg/ml plus hypericin 20 μM, 0.96 J/cm^2 (FIG. 3A)): 49%
EH cell protection from verteporfin-induced phototoxicity (EH endothelial cells; higher doses of light irradiation, 1.73 J/cm^2 (FIG. 3B)): also maintained at higher doses of light irradiation, yet the absolute levels of protection declined
retinal distribution of hypericin fluorescence ([3]; 15 minutes after 2 mg/kg i.v., rats (FIG. 6A)): confined to the choroidal blood vessels; also recorded: confined mainly to the vasculature
retinal distribution of hypericin fluorescence ([3]; 2 hrs after 2 mg/kg i.v., rats (FIG. 6B)): spreads to the entire retina; also recorded: extravasated to the surrounding tissue was less evident within the vasculature and spread through the choroid
retinal distribution of hypericin fluorescence ([3]; 6 hrs after 2 mg/kg i.v., rats (FIG. 6C)): present only in the retina and not in the blood vessels; also recorded: spread to the entire retina
confinement to the choroidal vasculature ([3]; after i.v. administration to rats (discussion)): mainly confined to the choroidal vasculature for up to one hour
bioavailability to the retina ([3]; hypericin 2 mg/kg i.v. tail vein, rats): bioavailable to the retina
clearance from choroidal vessels and tissue accumulation ([3]; rat, in vivo, iv): beyond 2 hrs was cleared from the choroidal vessels and accumulated in the extravascular choroid and RPE

Cc1ccc2c(=O)c3c(O)cc(O)c4c5c(O)cc(O)c6c(=O)c7ccc(C)cc7c(c65)c(c2c1)c34 [DTHe, dimethyl tetrahydroxy helianthrone]
competitive quenching of verteporfin-mediated phototoxicity relative to hypericin (ARPE cells; ARPE cells, 10 and 20 μg/ml): much less effective
cell viability (ARPE cells; [5]): 7.5%
cell viability (ARPE cells; [6]): 6%

verteporfin
time remaining in the intravascular compartment [4]: 30 min
